23 molecules from US20230312577A1, “DUAL KINASE-BROMODOMAIN INHIBITORS” (MONASH UNIVERSITY, priority 2020, published 2023) can be followed below.

Each structure is given as a SMILES string.

This assay has as its system OPM2 cells. Briefly: Cell proliferation assay (ViaLight, cellular ATP). The assay is classed as cell-based. Particulars: Homo sapiens, OPM-2, 120 h, 5 days, 5 μM to 1 nM. As for the experimental part:
OPM2 cells (1×10^3) were plated in a 96 well plate. Test compounds were added to cells at final concentrations ranging from 5 μM to 1 nM. They were incubated for 5 days before they were analysed using ViaLight luminescence-based proliferation assays which detect cellular ATP, as per the manufacturer's instructions. All samples were prepared in technical triplicates. Data analysis was performed in GraphPad Prism version 7.00 for Mac OS X, (GraphPad Software, San Diego California USA) in order to calculate the GI50.

What is called GI50 is the concentration giving 50% growth inhibition. Low values mean greater sensitivity of the cells, high ones lower sensitivity of the cells. In turn, `CC(=O)N1c2ccc(-c3cccc(NC(=O)Cc4cn5cc(-c6cnc(N)nc6)nc(N6CCOCC6)c5n4)c3)cc2CC[C@@H]1C` [Cpd 023, (S)-N-(3-(1-acetyl-2-methyl-1,2,3,4-tetrahydroquinolin-6-yl)phenyl)-2-(6-(2-aminopyrimidin-5-yl)-8-morpholinoimidazo[1,2-a]pyrazin-2-yl)acetamide] returned a GI50 of 100 to 500 nM. Next, `CC(=O)N1c2ccc(-c3cnn(C4CCN(Cc5sc6c(N7CCOCC7)nc(-c7cnc(N)nc7)nc6c5C)CC4)c3)cc2CC[C@@H]1C` [Cpd 052, (S)-1-(6-(1-(1-((2-(2-aminopyrimidin-5-yl)-7-methyl-4-morpholinothieno[3,2-d]pyrimidin-6-yl)methyl)piperidin-4-yl)-1H-pyrazol-4-yl)-2-methyl-3,4-dihydroquinolin-1(2H)-yl)ethan-1-one]: over 500 nM. To `CC(=O)N1c2ccc(-c3ccc(CNC(=O)c4cn5cc(-n6c(C(F)F)nc7ccccc76)nc(N6CCOCC6)c5n4)cc3)cc2CC[C@@H]1C` [Cpd 060, (S)-N-(4-(1-Acetyl-2-methyl-1,2,3,4-tetrahydroquinolin-6-yl)benzyl)-6-(2-(difluoromethyl)-1H-benzo[d]imidazol-1-yl)-8-morpholinoimidazo[1,2-a]pyrazine-2-carboxamide] belongs at most 100 nM; to `CC(=O)N1c2ccc(-c3cccc(CCNC(=O)c4sc5c(N6CCOCC6)nc(-c6cnc(N)nc6)nc5c4C)c3)cc2CC[C@@H]1C` [Cpd 051, (S)-N-(3-(1-acetyl-2-methyl-1,2,3,4-tetrahydroquinolin-6-yl)phenethyl)-2-(2-aminopyrimidin-5-yl)-7-methyl-4-morpholinothieno[3,2-d]pyrimidine-6-carboxamide], 100 to 500 nM; to `CC(=O)N1c2ccc(-c3cccc(CCNC(=O)c4nc5c(N6CCOCC6)nc(-c6cnc(N)nc6)cn5c4C)c3)cc2CC[C@@H]1C` [Cpd 050, (S)-N-(3-(1-acetyl-2-methyl-1,2,3,4-tetrahydroquinolin-6-yl)phenethyl)-6-(2-aminopyrimidin-5-yl)-3-methyl-8-morpholinoimidazo[1,2-a]pyrazine-2-carboxamide], 100 to 500 nM. In the case of `CC(=O)N1c2ccc(-c3ccc(CNC(=O)c4cc5nc(-c6cnc(N)nc6)cc(N6CCOCC6)n5n4)cc3)cc2CC[C@@H]1C` [Cpd 075, (S)-N-(4-(1-Acetyl-2-methyl-1,2,3,4-tetrahydroquinolin-6-yl)benzyl)-5-(2-aminopyrimidin-5-yl)-7-morpholinopyrazolo[1,5-a]pyrimidine-2-carboxamide], the GI50 is at most 100 nM.

In turn, `CC(=O)N1c2ccc(-c3ccc(C(=O)NCc4cn5cc(-c6cnc(N)nc6)nc(N6CCOCC6)c5n4)cc3)cc2CC[C@@H]1C` [Cpd 016, (S)-4-(1-Acetyl-2-methyl-1,2,3,4-tetrahydroquinolin-6-yl)-N-((6-(2-aminopyrimidin-5-yl)-8-morpholinoimidazo[1,2-a]pyrazin-2-yl)methyl)benzamide] came in with a GI50 of 100 to 500 nM. `CC(=O)N1c2ccc(-c3cccc(NC(=O)CNC(=O)c4sc5c(N6CCOCC6)nc(-c6cnc(N)nc6)nc5c4C)c3)cc2CC[C@@H]1C` [Cpd 049, (S)-N-(2-((3-(1-acetyl-2-methyl-1,2,3,4-tetrahydroquinolin-6-yl)phenyl)amino)-2-oxoethyl)-2-(2-aminopyrimidin-5-yl)-7-methyl-4-morpholinothieno[3,2-d]pyrimidine-6-carboxamide] had a GI50 of 100 to 500 nM. Consider `CC(=O)N1c2ccc(-c3ccc(C(C)(C)NC(=O)c4cn5cc(-c6cnc(N)nc6)nc(N6CCOCC6)c5n4)cc3)cc2CC[C@@H]1C` [Cpd 061, (S)-N-(2-(4-(1-Acetyl-2-methyl-1,2,3,4-tetrahydroquinolin-6-yl)phenyl)propan-2-yl)-6-(2-aminopyrimidin-5-yl)-8-morpholinoimidazo[1,2-a]pyrazine-2-carboxamide], for which the GI50 was in the range of 100 to 500 nM.

On to `CC(=O)N1c2ccc(-c3ccc(CNC(=O)c4nc5c(N6CCOCC6)cc(-c6cnc(N)nc6)cn5n4)cc3)cc2CC[C@@H]1C` [Cpd 073, (S)-N-(4-(1-Acetyl-2-methyl-1,2,3,4-tetrahydroquinolin-6-yl)benzyl)-6-(2-aminopyrimidin-5-yl)-8-morpholino-[1,2,4]triazolo[1,5-a]pyridine-2-carboxamide], for which the GI50 is at most 100 nM. `CC(=O)N1c2ccc(-c3ccc([C@@H](C)NC(=O)c4cn5cc(-c6cnc(N)nc6)nc(N6CCOCC6)c5n4)cc3)cc2CC[C@@H]1C` [Cpd 063, N-((R)-1-(4-((S)-1-Acetyl-2-methyl-1,2,3,4-tetrahydroquinolin-6-yl)phenyl)ethyl)-6-(2-aminopyrimidin-5-yl)-8-morpholinoimidazo[1,2-a]pyrazine-2-carboxamide]: the GI50 is at most 100 nM. Consider `CC(=O)N1c2ccc(-c3ccc(C(=O)NCCCNC(=O)c4cc5nc(-c6cnc(N)nc6)nc(N6CCOCC6)c5s4)cc3)cc2CC[C@@H]1C` [Cpd 040, (S)-N-(3-(4-(1-Acetyl-2-methyl-1,2,3,4-tetrahydroquinolin-6-yl)benzamido)propyl)-2-(2-aminopyrimidin-5-yl)-4-morpholinothieno[3,2-d]pyrimidine-6-carboxamide], for which the concentration for 50% growth inhibition (GI50) was over 500 nM.

As to `CC(=O)N1c2ccc(-c3ccc(C(=O)N(C)CCN(C)C(=O)c4cn5cc(-c6cnc(N)nc6)nc(N6CCOCC6)c5n4)cc3)cc2CC[C@@H]1C` [Cpd 036, (S)-N-(2-(4-(1-Acetyl-2-methyl-1,2,3,4-tetrahydroquinolin-6-yl)-N-methylbenzamido)ethyl)-6-(2-aminopyrimidin-5-yl)-N-methyl-8-morpholinoimidazo[1,2-a]pyrazine-2-carboxamide], the GI50 is over 500 nM. On to `CC(=O)N1c2ccc(-c3ccc(CNC(=O)c4cc5c(N6CCOCC6)nc(-c6cnc(N)nc6)cn5c4)cc3)cc2CC[C@@H]1C` [Cpd 069, (S)-N-(4-(1-Acetyl-2-methyl-1,2,3,4-tetrahydroquinolin-6-yl)benzyl)-3-(2-aminopyrimidin-5-yl)-1-morpholinopyrrolo[1,2-a]pyrazine-7-carboxamide], for which the GI50 is at most 100 nM.

On to `CC(=O)N1c2ccc(-c3ccc(CCNC(=O)c4sc5c(N6CCOCC6)nc(-c6cnc(N)nc6)nc5c4C)cc3)cc2CC[C@@H]1C` [Cpd 046, (S)-N-(4-(1-acetyl-2-methyl-1,2,3,4-tetrahydroquinolin-6-yl)phenethyl)-2-(2-aminopyrimidin-5-yl)-7-methyl-4-morpholinothieno[3,2-d]pyrimidine-6-carboxamide], for which the GI50 fell in the range of 100 to 500 nM. In the case of `CC(=O)N1c2ccc(-c3ccc(CN(C)C(=O)c4cn5cc(-c6cnc(N)nc6)nc(N6CCOCC6)c5n4)cc3)cc2CC[C@@H]1C` [Cpd 037, (S)-N-(4-(1-acetyl-2-methyl-1,2,3,4-tetrahydroquinolin-6-yl)benzyl)-6-(2-aminopyrimidin-5-yl)-N-methyl-8-morpholinoimidazo[1,2-a]pyrazine-2-carboxamide], the GI50 was 100 to 500 nM.

Molecule `CC(=O)N1c2ccc(-c3ccc(CNC(=O)c4cc5c(N6CCOCC6)nc(-c6cnc(N)nc6)cn5n4)cc3)cc2CC[C@@H]1C` [Cpd 067, (S)-N-(4-(1-Acetyl-2-methyl-1,2,3,4-tetrahydroquinolin-6-yl)benzyl)-6-(2-aminopyrimidin-5-yl)-4-morpholinopyrazolo[1,5-a]pyrazine-2-carboxamide] gave a GI50 of at most 100 nM. `CC(=O)N1c2ccc(-c3ccc(NC(=O)CNC(=O)c4sc5c(N6CCOCC6)nc(-c6cnc(N)nc6)nc5c4C)cc3)cc2CC[C@@H]1C` [Cpd 047, (S)-N-(2-((4-(1-acetyl-2-methyl-1,2,3,4-tetrahydroquinolin-6-yl)phenyl)amino)-2-oxoethyl)-2-(2-aminopyrimidin-5-yl)-7-methyl-4-morpholinothieno[3,2-d]pyrimidine-6-carboxamide]: the GI50 is over 500 nM. In turn, `CC(=O)N1c2ccc(-c3ccc(CNCc4sc5c(N6CCOCC6)nc(-c6cnc(N)nc6)nc5c4C)cc3)cc2CC[C@@H]1C` [Cpd 055, (S)-1-(6-(4-((((2-(2-aminopyrimidin-5-yl)-7-methyl-4-morpholinothieno[3,2-d]pyrimidin-6-yl)methyl)amino)methyl)phenyl)-2-methyl-3,4-dihydroquinolin-1(2H)-yl)ethan-1-one] returned a GI50 of over 500 nM. `CC(=O)N(Cc1ccc(-c2ccc3c(c2)CC[C@H](C)N3C(C)=O)cc1)Cc1sc2c(N3CCOCC3)nc(-c3cnc(N)nc3)nc2c1C` [Cpd 056, (S)-N-(4-(1-Acetyl-2-methyl-1,2,3,4-tetrahydroquinolin-6-yl)benzyl)-N-((2-(2-aminopy-rimidin-5-yl)-7-methyl-4-morpholinothieno[3,2-d]pyrimidin-6-yl)methyl)acetamide]: the GI50 lay within 100 to 500 nM. To `CC(=O)N1c2ccc(-c3ccc(CNC(=O)c4cn5cc(-c6cccc7[nH]ncc67)nc(N6CCOCC6)c5n4)cc3)cc2CC[C@@H]1C` [Cpd 059, (S)-N-(4-(1-Acetyl-2-methyl-1,2,3,4-tetrahydroquinolin-6-yl)benzyl)-6-(1H-indazol-4-yl)-8-morpholinoimidazo[1,2-a]pyrazine-2-carboxamide] belongs at most 100 nM; to `CC(=O)N1c2ccc(-c3ccc(CNC(=O)c4nc5c(N6CCOCC6)nc(-c6cnc(N)nc6)cn5n4)cc3)cc2CC[C@@H]1C` [Cpd 072, (S)-N-(4-(1-Acetyl-2-methyl-1,2,3,4-tetrahydroquinolin-6-yl)benzyl)-6-(2-aminopyrimidin-5-yl)-8-morpholino-[1,2,4]triazolo[1,5-a]pyrazine-2-carboxamide], at most 100 nM.

In turn, `CC(=O)N1c2ccc(-c3ccc(CNC(=O)c4nc5c(N6CCOCC6)nc(-c6cnc(N)nc6)nc5n4C)cc3)cc2CC[C@@H]1C` [Cpd 071, (S)-N-(4-(1-Acetyl-2-methyl-1,2,3,4-tetrahydroquinolin-6-yl)benzyl)-2-(2-aminopyrimidin-5-yl)-9-methyl-6-morpholino-9H-purine-8-carboxamide] returned a GI50 of at most 100 nM.
